In patent US20060159669A1, “Novel uses of PPAR modulators and professional APCs manipulated by the same” (priority 2003, published 2006):
Entries after “also recorded” stand apart in the source; their conditions may differ.

Experiments:
[1] = tested on: CD1d; assay: CD1d mRNA expression (RT-PCR, Affymetrix microarray) in monocyte-derived DC; type: cell-based, human; settings: IDC; for Induction of CD1d by receptor-specific agonists: 2.5 microM RSG, 200 nM GW7845, 1 microM GW501516, 20 microM WY14643, 1 microM T0901317, FIG. 5B
Description: DC generation and maturation. Highly enriched monocytes (98% CD14+) were obtained from buffy coats of healthy donors (provided by the local blood center) by Ficoll gradient centrifugation and immunomagnetic cell separation using anti-CD14-conjugated microbeads (VarioMACS; Miltenyi Biotec). Human monocyte-derived IDCs were prepared as described previously (Sallusto and Lanzavecchia, 1994) with minor modification. In brief, monocytes were resuspended into six-well culture dishes at a density of 1.5×10^6 cells/ml and cultured in RPMI 1640 supplemented with 10% FBS (Invitrogen), containing 800 U/ml GM-CSF (Leucomax) and 500 U/ml IL-4 (Peprotech). Cells were cultured for 5 or 6 days and the IL-4 and GM-CSF addition was repeated at day 2 to obtain a population of immature DCs. In some experiments FBS was replaced with human AB serum (Sigma). To obtain MDCs, IDCs were treated with a mixture of cytokines: 10 ng/ml TNF-alpha (Peprotech), 10 ng/ml IL-1beta (Peprotech), 1000 U/ml IL-6 (Peprotech), 1 microg/ml PGE2 (Sigma) and 800 U/ml GM-CSF for 24 hr (Jonuleit et al., 1997).
(§1) Ligands or vehicle control (50% DMSO/ethanol) were added to the cell culture starting from the first day.
Microarray experiment. Total RNA was isolated using Trizol Reagent (Invitrogen) and further purified by using the RNeasy kit (Quiagen). cRNA was generated from 5 microg of total RNA by using the SuperScript Choice kit (Invitrogen) and the High Yield RNA transcription labeling kit (Enzo Diagnostics). Fragmented cRNA was hybridized to Affymetrix (Santa Clara, Calif.) arrays (HU95A) according to Affymetrix standard protocols. Preliminary data analysis was performed by the Microarray Core Facility at University of California at Irvine. Further analysis was performed using GeneSpring 6.0 (Silicon Genetics, Redwood City, Calif.). These analyses provided a signal for each specific transcript that was subsequently normalized by comparing to the median signal (arbitrary value of 1.0) obtained from the whole array.
(§2) Real-time RT-PCR. […] The following primers and probes were used: […]

[2] = target: T1, PPARg (Homo sapiens, UniProt P37231); assay: FABP4 and other PPARg target gene mRNA expression by real-time RT-PCR in differentiating monocyte-derived DC; type: cell-based; settings: for Induction of FABP4 by receptor-specific agonists: IDC, 2.5 microM RSG, 200 nM GW7845, 1 microM GW501516, 20 microM WY14643, 1 microM T0901317, FIG. 5A
T1 construct: endogenous in cells; host or cells: human monocyte-derived dendritic cells (CD14+ monocytes from buffy coats, GM-CSF + IL-4)
T1 sequence (P37231 1-505): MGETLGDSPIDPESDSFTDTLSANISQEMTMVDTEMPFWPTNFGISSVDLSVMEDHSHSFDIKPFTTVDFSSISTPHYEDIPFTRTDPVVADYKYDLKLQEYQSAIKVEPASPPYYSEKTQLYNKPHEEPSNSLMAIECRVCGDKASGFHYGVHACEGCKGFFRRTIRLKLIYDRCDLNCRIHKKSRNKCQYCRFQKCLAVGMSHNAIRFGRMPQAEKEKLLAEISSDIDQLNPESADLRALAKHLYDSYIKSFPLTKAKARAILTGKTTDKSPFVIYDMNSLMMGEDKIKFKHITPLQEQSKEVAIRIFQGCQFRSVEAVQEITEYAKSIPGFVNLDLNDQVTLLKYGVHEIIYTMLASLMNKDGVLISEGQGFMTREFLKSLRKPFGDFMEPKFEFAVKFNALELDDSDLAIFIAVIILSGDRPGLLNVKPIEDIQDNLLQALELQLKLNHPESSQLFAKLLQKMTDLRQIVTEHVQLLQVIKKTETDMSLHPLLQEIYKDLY
Description: DC generation and maturation. Highly enriched monocytes (98% CD14+) were obtained from buffy coats of healthy donors (provided by the local blood center) by Ficoll gradient centrifugation and immunomagnetic cell separation using anti-CD14-conjugated microbeads (VarioMACS; Miltenyi Biotec). […] Cells were cultured for 5 or 6 days and the IL-4 and GM-CSF addition was repeated at day 2 to obtain a population of immature DCs. In some experiments FBS was replaced with human AB serum (Sigma).
as §1, §2

[3] = tested on: iNKT cells; assay: Expansion of iNKT cells by alpha-GalCer pulsed DC in autologous PBMC coculture; type: cell-based, human; settings: for Induction of iNKT (Valpha24+ Vbeta11+) cell expansion vs untreated DC: 5-day coculture
Description: FACS analysis. Cell staining was performed using alpha-GalCer-loaded APC-labeled CD1d-tetramer (kindly provided by A. Herbelin) and FITC-, Cyc- or PE-conjugated mAbs. Labeled antibodies for flow cytometry included anti-CD161-Cyc, CD8-PE, CD25-PE, CD1a-PE, CD1d-PE, CD86-PE, CD83-PE, CD206-PE, CD3- FITC, CD36-FITC, CD80-FITC, CD209-FITC, HLA-DR-FITC and isotype-matched controls (BD PharMingen), anti-Vbetal 1-PE and anti-Valpha24-FITC (Immunotech). The cells were assessed for fluorescence intensity using EPICS Elite flow cytometer (Beckman Coulter) or with FACS Calibur cytometer (Beckton Dickinson). Data analysis was performed using WinMDI software (Joseph Trotter, The Scripps Research Institute, La Jolla, Calif.).
Expansion of iNKT cells. IDCs were treated with or without the inflammatory mixture as described previously and with 100ng/ml alpha-GalCer for 24 hr to obtain alpha-GalCer-loaded MDC or IDC, respectively. alpha-GalCer pulsed IDCs or MDCs (2×10^5 cells/ml) were cocultured with 2×10^6 monocyte depleted autologous PBMC for 5 days in 24 well plates. The expansion of iNKT cells was monitored by quantifying Valpha24+ Vbetal 1+ and Valpha24+ CD161+ cells by FACS analysis. The specificity of CD1d-restricted NKT cells was also verified by alpha-GalCer loaded APC-labelled CD1d tetramer staining.

Compound: COC(=O)c1ccccc1N[C@@H](Cc1ccc(OCCc2nc(-c3ccccc3)oc2C)cc1)C(=O)O [GW7845]
- Induction of CD1d by receptor-specific agonists [1]: turn on gene expression
- Induction of FABP4 by receptor-specific agonists [2]: specifically up-regulated

Compound: Cc1cccc(Nc2cc(Cl)nc(SCC(=O)O)n2)c1C [Wy14,643]
- Induction of FABP4 by receptor-specific agonists [2]: much less potently

Compound: O=C(Nc1ccccc1)c1cc([N+](=O)[O-])ccc1Cl [GW9662]
- Inhibition of PPARg specific induction of CD1d by antagonist ([1]; 5 microM GW9662 with 2.5 microM RSG): inhibited
- Block of the more pronounced FABP4 increase in human AB serum ([2]; 5 microM GW9662, FBS replaced with human AB serum): blocked effectively
- Inhibition of FABP4 up-regulation by PPARg antagonist ([2]; 5 microM GW9662, untreated and 2.5 microM RSG treated DC): able to prevent the up-regulation of FABP4; also recorded: inhibited

Compound: CCCCCCCCCCCCCCCCCCCCCCCCCC(=O)N[C@@H](CO[C@H]1O[C@H](CO)[C@H](O)[C@H](O)[C@H]1O)[C@H](O)[C@H](O)CCCCCCCCCCCCCC [alpha-GalCer, alpha-galactosyl-ceramide]
- Expansion of Valpha24+ Vbeta11+ iNKT cells by glycolipid loading of DC ([3]; DC pulsed with 100ng/ml alpha-GalCer for 24 hr, 5 days coculture): necessary for the potent induction; also recorded: remarkable expansion of iNKT cells

Compound: CN(CCOc1ccc(CC2SC(=O)NC2=O)cc1)c1ccccn1 (stereo not shown) [RSG, Rosiglitazone]
- Induction of iNKT (Valpha24+ Vbeta11+) cell expansion vs untreated DC ([3]; alpha-GalCer loaded RSG treated IDC, depending on the donor): 1.5-10.25 fold
- Induction of iNKT (Valpha24+ Vbeta11+) cell expansion vs untreated DC ([3]; alpha-GalCer loaded RSG treated MDC as stimulator): 1.1-4 fold

Compound: O=S(=O)(c1ccccc1)N(CC(F)(F)F)c1ccc(C(O)(C(F)(F)F)C(F)(F)F)cc1 [T0901317]
- Induction of CD1d by receptor-specific agonists [1]: failed to activate CD1d
